Data on one substance can be found in US10420803B2, “Differentiation of pluripotent stem cells to intestinal midgut endoderm cells” (Janssen Biotech, Inc., priority 2016, dated 2019).

Holding throughout (assay type): cell-based, human
Assay [1] has as its system H1-hESC-derived S3D5 cells. Nature of the assay: Cell number characterization using the Nucleocounter NC-100. Here is the method: A summary of a differentiation method, including the important medium components, growth factors and small molecules that were added to each stage, and key stage-specific markers of the differentiating intestinal midgut endoderm cells (FOXA2; CDX2; KLF5; SOX9; PDX1^LO) is depicted in FIG. 1A. As compared to the neutral pH noted for S2D2 (7.35±0.04), cells were exposed to slightly acidic conditions in the BLAR medium, during the entirety of stage 3 (pH; S3D1, 6.98±0.05; S3D2, 7.02±0.04; S3D5, 7.18±0.03) (FIG. 1B), and as a result of lower sodium bicarbonate levels in BLAR medium. The pH of the culture can range from about 6.8 to 7.2 during the five days of stage 3. FIG. 1C depicts representative phase-contrast images of a S3D5 monolayer (left), and human epithelial colon adenocarcinoma cell line (“Caco-2”) (right), which was used as a benchmark for characterization of differentiation. A uniform morphology at S3D5 was observed.

For assay [2], the system named is H1-hESC-derived S3D5 cells. Put plainly: FACS quantification of protein co-presence in S3D5 cells. The protocol: (§1) Differentiation: The cultures were differentiated using the following protocol. During Stages 1 through 3 of the protocol, cultures were maintained on planar adherent cultures. […] The following nomenclature, S#D#, specifies exact time during Stages 1 through 3. For example, S1D3 is stage 1 day 3. Briefly, each stage defines differentiation towards definitive endoderm (stage 1), primitive gut tube (stage 2), and intestinal midgut endoderm (stage 3). • a. Stage 1 (3 days): Cells were cultured for one day in the following Stage 1 media:
Quantification of differentiated cells: For quantification of protein presence co-localization, S3D5 cells were harvested and analyzed by FACS. FACS staining was conducted as described in Nature Biotechnology, 2014 (32) 11, 1121-1133, incorporated herein by reference in its entirety, and using the antibodies listed in Table II. In brief, differentiated cells were incubated in TrypLE™ Express (Life Technologies, Carlsbad, Calif., Catalog No. 12604) for 5-10 minutes at 37° C., released into a single-cell suspension, after which they were washed twice with a staining buffer of PBS containing 0.2% BSA (BD Biosciences, San Jose, Calif., Catalog No. 554657). Intracellular antibody staining was accomplished by utilizing the LIVE/DEAD Violet Fluorescent reactive dye (Life Technologies, Carlsbad, Calif., Catalog No. L34955) at 4° C. for 30 minutes followed by a single wash in cold PBS. Fixing of cells was in 300 μl of Cytofix/Cytoperm Buffer (BD Biosciences, San Jose, Calif., Catalog No. 554723) followed by two washes in Perm/Wash Buffer (BD Biosciences, San Jose, Calif., Catalog No. 554722). Cells were then incubated with the appropriate antibodies at 4° C. for 30 minutes (for unconjugated antibodies) or 1 hour (for conjugated antibodies), and then washed twice prior to analysis on the BD FACS Canto II using BD FACS Diva Software with at least 30,000 events being acquired. Non-viable cells were excluded during FACS analysis, and gating was determined by using isotype antibodies (“IgG”). IgG FACS data is shown as the top panel for each FACS experiment presented. Antibodies were tested for specificity using positive controls, such as Caco-2 cells, or negative controls, such as S1D3 definitive endoderm (“DE”) cells.

For assay [3], the system named is H1-hESC-derived S3D5 cells. Put plainly: Gene expression by qPCR (Taqman Arrays) in S3D5 cells. Here is the method:
as §1
For quantification of gene expression at various stages, Caco-2, H1-hESC, S1D3, S2D2, S3D2 and S3D5 cells were harvested, as described in Nature Biotechnology, 2014 (32) 11, 1121-1133. Briefly, gene expression was assessed in cells using custom Taqman® Arrays (Applied Biosystems, Foster City, Calif.); Open Array® (OA) was used for CDX2, FOXA2, SOX2, SOX9, PDX1, ALB, PTF1A, and Taqman® Low Density Array (TLDA) was used for KLF5, HOXC5, and LGR5, with housekeeping gene GAPDH used for both tests. Data were analyzed using Sequence Detection Software (Applied Biosystems, Foster City, Calif.), and normalized using GAPDH as a housekeeping gene to undifferentiated H1-hESC using the ΔΔCt method. Primer details are outlined in Table IV.
(Real-time PCR tracks product formation cycle by cycle.)

Where [4] appears, read: S3D5, compared to pancreas-biased S4D3 cells.

As for “BMP4: Bone morphogenic protein-4, 50 ng/ml with 1 μM retinoic acid in BLAR medium during Stage 3”, the “S3D5 cells obtained from one hESC” value in assay [1] amounted to 4.56±2.60. Further, in assay [2], the “S3D5 cells exhibiting SOX2 and CDX2 co-presence” value amounted to 1.45±0.15%; the “percent of cells co-positive for both CDX2 and PDX1” value is 69.4±14.2%; the “percent of cells co-present for both CDX2 and SOX9” value turned out to be 98.7±0.25%. For the same substance, the “percent of S3D5 cells co-present for both CDX2 and FOXA2 protein” value in assay [2] (Stage 3 in BLAR medium with 1 μM retinoic acid and 50 ng/ml BMP) came out at 90.0±5.85%. Further, in assay [2] (total cells >90% CDX2-positive), the “percentage KI67-protein positive cells of total S3D5 cells” value came out at 16.8±3.12%. Moreover, in assay [3] (S3D5), the ALB gene expression entry was “not observed”, the HOXA13 gene expression result is given as “not induced”, the HOXC5 gene expression result is on record as “strongly induced” and the KLF5 gene expression result is listed as “upregulated”. For the same substance, in assay [3] (S3D5), the LGR5 gene expression result was “not induced”; the SOX2 gene expression entry is “below levels seen in hESC and Caco-2 cells”. For the same substance, the SOX9 gene expression result in assay [3] (S3D5, compared to Caco-2 cells) was “Strong induction”. Besides, in assay [3] (setting [4]), the PDX1 gene expression entry is recorded as “induced at low levels” and the PTF1A gene expression result is given as “not induced”. In addition, in assay [3] (during Stage 3), the CDX2 gene expression result is “induced” and the FOXA2 gene expression result is “maintained”.
